For one test, the target named is T1, KRAS G12C 1-169, his-tagged protein, GDP-loaded (Homo sapiens, UniProt P01116, G12C).
T1 construct: KRAS G12C 1-169, his-tagged protein, GDP-loaded
Nature of the test: KRAS G12C covalent binding (% modification) by mass spectrometry, ten or three minute incubation. The settings on record: covalent binding to KRAS G12C after a ten minute incubation period. The protocol:
Test compounds were prepared as 10 mM stock solutions in DMSO (Fisher cat #BP-231-100). KRAS G12C 1-169, his-tagged protein, GDP-loaded was diluted to […] in buffer (20 mM Hepes, 150 mM NaCl, 1 mM MgCl2). Compounds were tested for activity as follows:
Compounds were diluted to 50× final test concentration in DMSO in 96-well storage plates. Compound stock solutions were vortexed before use and observed carefully for any sign of precipitation. Dilutions were as follow: • For 100 μM final compound concentration, compounds were diluted to 5000 μM (5 μl 10 mM compound stock+5 μl DMSO and mixed well by pipetting. • For 30 μM final compound concentration, compounds were diluted to 1500 μM (3 μl 10 mM compound stock+17 μl DMSO) and mixed well by pipetting. • For 10 μM final compound concentration, compounds were diluted to 500 μM (2 μl 10 mM compound stock+38 μl DMSO) and mixed well by pipetting. 49 μl of the stock protein solution was added to each well of a 96-well PCR plate (Fisher cat #1423027). 1 μl of the diluted 50× compounds were added to appropriate wells in the PCR plate using 12-channel pipettor. Reactions were mixed carefully and thoroughly by pipetting up/down with a 200 μl multi-channel pipettor. […] 5 μl of 2% formic acid (Fisher cat #A117) in DI H2O was then added to each well followed by mixing with a pipette. The plate was then resealed with aluminum seal and stored on dry ice until analyzed as described below.
The above described assays were analyzed by mass spectrometry according to one of the following two procedures:
The MS instrument is set to positive polarity, 2 GHz resolution, and low mass (1700) mode and allowed to equilibrate for 30 minutes. The instrument is then calibrated, switched to acquisition mode and the appropriate method loaded.
After another 30 minute equilibration time, a blank batch (i.e., buffer) is run to ensure equipment is operating properly. The samples are thawed at 37° C. for 10 minutes, briefly centrifuged, and transfer to the bench top. Wells A1 and H12 are spiked with 1 μL 500 μM internal standard peptide, and the plates centrifuged at 2000×g for 5 minutes. The method is then run and masses of each individual well recorded.
The masses (for which integration data is desired) for each well are pasted into the platemap and exported from the analysis. Masses for the internal standards are exported as well. The data at 50 ppm is extracted for the +19 charge state, and identity of well A1 is assigned using the internal standard spike and integrated. Peak data is exported as a TOF list and the above steps are repeated individually, for the +20, 21, 22, 23, 24, and 25 charge states.
The masses and peak intensities of KRAS G12C protein species were measured using a Dionex RSLCnano system (Thermo Scientific) connected to a Q Exactive Plus mass spectrometer (Thermo Scientific).
[…] of sample was each loaded onto a Aeris™ 3.6 μm WIDEPORE C4 200 Å, LC Column 50×2.1 mm column maintained at 40° C. at a flow rate of 600 μl min^−1 with […] (0.1% formic acid in acetonitrile). The liquid chromatography conditions were 20% solvent B for 1 min, 20% to 60% solvent B for 1.5 min, 60% to 90% solvent for 0.5 min, 90% solvent B for 0.2 min, 90% to 20% solvent B for 0.2 min, and then equilibrated for 1.6 min before the following sample injection. The flow rate was maintained at 600 μl min^−1 throughout the sample analysis.
The mass spectrometer was operated in profile mode at a resolution of 17500, 5 microscans, using 50 msec max injection time and an AGC target of 1e6, and a full mass range from 800-1850 m/z was recorded. The HCD trapping gas was optimized for maximum sensitivity for intact proteins. The ionization method was electrospray ionization, which used a spray voltage of 4 kV, sheath gas flow set to 50 au, auxiliary gas flow set to 10 au and sweep gas flow set to 1 au. […]
`C=CC(=O)N1C[C@H](C)N(c2nc(N3CC(N(C)C)C3)nc3c(F)c(-c4c(O)cccc4F)c(Cl)cc23)C[C@H]1C` (atropisomer, axis not shown) [Compound 53, 1-((2R,5S)-4-((R)-6-chloro-2-(3-(dimethylamino)azetidin-1-yl)-8-fluoro-7-(2-fluoro-6-hydroxyphenyl)quinazolin-4-yl)-2,5-dimethylpiperazin-1-yl)prop-2-en-1-one]: the Binding % entry is “++ (++ indicates binding activity from 50 to 90%)”.
Same read-out and setting: next, `C=CC(=O)N1CCN(c2nc(N3CC(N(C)C)C3)nc3c(F)c(-c4c(O)cccc4F)c(Cl)cc23)C[C@H]1C` (atropisomer, axis not shown) [Compound 61, 1-((R)-4-((R)-6-chloro-2-(3-(dimethylamino)azetidin-1-yl)-8-fluoro-7-(2-fluoro-6-hydroxyphenyl)quinazolin-4-yl)-2-methylpiperazin-1-yl)prop-2-en-1-one]: “++ (++ indicates binding activity from 50 to 90%)”.
With `C=CC(=O)N1C[C@H](C)N(c2nc(N3CC(N(C)C)C3)nc3c(F)c(-c4c(C)ccc5cn[nH]c45)c(Cl)cc23)C[C@H]1C` (atropisomer, axis not shown) [Compound 73, 1-((2R,5S)-4-((S)-6-chloro-2-(3-(dimethylamino)azetidin-1-yl)-8-fluoro-7-(6-methyl-1H-indazol-7-yl)quinazolin-4-yl)-2,5-dimethylpiperazin-1-yl)prop-2-en-1-one], the Binding % entry is recorded as “++ (++ indicates binding activity from 50 to 90%)”.
Take `C=CC(=O)N1C[C@H](C)N(c2nc(OCCN(CC)CC)nc3c(F)c(-c4c(O)cccc4F)c(Cl)cc23)C[C@H]1C` (atropisomer, axis not shown) [Compound 74, 1-((2R,5S)-4-((R)-6-chloro-2-(2-(diethylamino)ethoxy)-8-fluoro-7-(2-fluoro-6-hydroxyphenyl)quinazolin-4-yl)-2,5-dimethylpiperazin-1-yl)prop-2-en-1-one]: the Binding % entry is “++ (++ indicates binding activity from 50 to 90%)”.
On the same count and under the same terms, in the case of `C=CC(=O)N1C[C@H](C)N(c2nc(OCCN3CC(F)(F)C3)nc3c(F)c(-c4c(O)cccc4F)c(Cl)cc23)C[C@H]1C` (atropisomer, axis not shown) [Compound 84, 1-((2R,5S)-4-((S)-6-chloro-2-(2-(3,3-difluoroazetidin-1-yl)ethoxy)-8-fluoro-7-(2-fluoro-6-hydroxyphenyl)quinazolin-4-yl)-2,5-dimethylpiperazin-1-yl)prop-2-en-1-one] it was “+++ (+++ indicates binding activity greater than 90%)”.

Staying with this test, now noted: covalent binding to KRAS G12C, % modification after a three minute incubation period.
Take “1-((2R,5S)-4-(6-chloro-2-(2-(diethylamino)ethoxy)-8-fluoro-7-((S)-6-methyl-1H-indazol-7-yl)quinazolin-4-yl)-2,5-dimethylpiperazin-1-yl)prop-2-en-1-one [Compound 157]”: the Binding % result was “+ (+ indicates binding activity greater than 0% and up to 50%)”.
On the same count and under the same terms, in the case of `C=CC(=O)N1C[C@H](C)N(c2nc(OCCN3CC(F)(F)C3)nc3c(F)c(-c4c(O)cccc4F)c(Cl)cc23)C[C@H]1C` (atropisomer, axis not shown) [Compound 90, 1-((2R,5S)-4-(6-chloro-2-(2-(3,3-difluoroazetidin-1-yl)ethoxy)-8-fluoro-7-((S)-2-fluoro-6-hydroxyphenyl)quinazolin-4-yl)-2,5-dimethylpiperazin-1-yl)prop-2-en-1-one] it was “++ (++ indicates binding activity from 50 to 90%)”.
Still for that read-out and setting: next, `C=CC(=O)N1C[C@H](C)N(c2nc(N3CC(N(C)C)C3)nc3c(F)c(-c4c(C)ccc5[nH]ncc45)c(Cl)cc23)C[C@H]1C` (atropisomer, axis not shown) [Compound 130, 1-((2R,5S)-4-(6-chloro-2-(3-(dimethylamino)azetidin-1-yl)-8-fluoro-7-((R)-5-methyl-1H-indazol-4-yl)quinazolin-4-yl)-2,5-dimethylpiperazin-1-yl)prop-2-en-1-one]: “+++ (+++ indicates binding activity greater than 90%)”.
The same measure, in the same setting: in the case of `[2H]C([2H])([2H])N(C1CN(c2nc(N3C[C@@H](C)N(C(=O)C=C)C[C@@H]3C)c3cc(Cl)c(-c4c(O)cccc4F)c(F)c3n2)C1)C([2H])([2H])[2H]` (atropisomer, axis not shown) [Compound 207, 1-((2R,5S)-4-(2-(3-(bis(tridueteromethyl)amino)azetidin-1-yl)-6-chloro-8-fluoro-7-((S)-2-fluoro-6-hydroxyphenyl)quinazolin-4-yl)-2,5-dimethylpiperazin-1-yl)prop-2-en-1-one] it was “+++ (+++ indicates binding activity greater than 90%)”; in that of `[2H]C([2H])([2H])N(C1CN(c2nc(N3C[C@@H](C)N(C(=O)C=C)C[C@@H]3C)c3cc(Cl)c(-c4c(O)cccc4F)c(F)c3n2)C1)C([2H])([2H])[2H]` (atropisomer, axis not shown) [Compound 212, 1-((2R,5S)-4-(2-(3-(bis(tridueteromethyl)amino)azetidin-1-yl)-6-chloro-8-fluoro-7-((R)-2-fluoro-6-hydroxyphenyl)quinazolin-4-yl)-2,5-dimethylpiperazin-1-yl)prop-2-en-1-one], “+ (+ indicates binding activity greater than 0% and up to 50%)”; in that of `[2H]C([2H])([2H])N(C1CN(c2nc(N3C[C@@H](C)N(C(=O)C=C)C[C@@H]3C)c3cc(Cl)c(-c4c(C)ccc5[nH]ncc45)c(F)c3n2)C1)C([2H])([2H])[2H]` (atropisomer, axis not shown) [Compound 226, 1-((2R,5S)-4-(6-chloro-2-(3-(bis(tridueteromethyl)amino)azetidin-1-yl)-8-fluoro-7-((R)-5-methyl-1H-indazol-4-yl)quinazolin-4-yl)-2,5-dimethylpiperazin-1-yl)prop-2-en-1-one], “+++ (+++ indicates binding activity greater than 90%)”.
As to `C=CC(=O)N1C[C@H](C)N(c2nc(OCCn3ccnc3)nc3c(F)c(-c4c(O)cccc4F)c(Cl)cc23)C[C@H]1C` (atropisomer, axis not shown) [Compound 249, 1-((2R,5S)-4-(2-(2-(1H-imidazol-1-yl)ethoxy)-6-chloro-8-fluoro-7-((S)-2-fluoro-6-hydroxyphenyl)quinazolin-4-yl)-2,5-dimethylpiperazin-1-yl)prop-2-en-1-one], the Binding % entry is “+++ (+++ indicates binding activity greater than 90%)”.
Consider `C=CC(=O)N1C[C@H](C)N(c2nc(N3CC(N(C)C)C3)nc3c(F)c(-c4cc(O)cc5ccccc45)c(C(F)(F)F)cc23)C[C@H]1C` (atropisomer, axis not shown) [Compound 255, 1-((2R,5S)-4-(2-(3-(dimethylamino)azetidin-1-yl)-8-fluoro-7-((R)-3-hydroxynaphthalen-1-yl)-6-(trifluoromethyl)quinazolin-4-yl)-2,5-dimethylpiperazin-1-yl)prop-2-en-1-one], for which the Binding % result is reported as “+++ (+++ indicates binding activity greater than 90%)”.
For the compound `C=CC(=O)N1C[C@H](C)N(c2nc(N3CC(N(C)C)C3)nc3c(F)c(-c4cc(O)cc5ccccc45)c(C(F)(F)F)cc23)C[C@H]1C` (atropisomer, axis not shown) [Compound 256, 1-((2R,5S)-4-(2-(3-(dimethylamino)azetidin-1-yl)-8-fluoro-7-((S)-3-hydroxynaphthalen-1-yl)-6-(trifluoromethyl)quinazolin-4-yl)-2,5-dimethylpiperazin-1-yl)prop-2-en-1-one], the Binding % result was “+ (+ indicates binding activity greater than 0% and up to 50%)”.

Values taken from patent US11021470B2, “2-substituted quinazoline compounds comprising a substituted heterocyclic group and methods of use thereof” (Araxes Pharma LLC, priority 2015, dated 2021).
